Converted amounts (≈) assume the structure as drawn. Residues, ends and D or L forms follow the SMILES beside them. *: point of attachment. Piperidide = C1CCN(*)CC1; PhAc = O=C(Cc1ccccc1)* Some results are limits rather than exact numbers.

For the data set the following is noted: buffer; pH 7.4; 200.0 µM.
The term kinetic solubility denotes the concentration staying in solution when a stock, usually in DMSO, is diluted into the medium. For the molecule `Cc1cc(C(=O)O)ccc1-n1c(C)cc(/C=C2\SC(=O)NC2=O)c1C`, the solubility (kinetic) was above 53.5 µg/mL. `COc1cccc(NC(=O)COC(=O)C2CCCCC2)c1` returned a kinetic solubility above 43.7 µg/mL. The result for `Cc1ccc(CN2CCN(c3ncccn3)CC2)c(C)c1` reads 19.4 µg/mL (≈ 68.7 µM); that for `CCOc1ccc(NC(=O)CN(C)C(=O)C2COc3ccccc3O2)cc1OCC` (stereo not drawn), above 62.2 µg/mL.

On to `COc1cc2c(cc1OC)CN(C(=O)/C=C/c1ccc(F)cc1)CC2`, for which the kinetic solubility was 46.9 µg/mL (≈ 137 µM). The same measure for `Brc1cc(Br)cc(CN2CCSCC2)c1`: below 0.8 µg/mL; for `COc1ccc(OCCn2ccnc2C)cc1.O=C(O)C(=O)O`: 41.7 µg/mL; for `Cc1cc(-n2c(C)cc(C(=O)COc3ccc(Cl)cc3C(N)=O)c2C)no1`: 2.7 µg/mL (≈ 6.96 µM). `CCn1c(NCCCO)nc2c(c1=O)C(C)(CC)Cc1ccccc1-2` (stereo not drawn) showed a solubility (kinetic) of 47 µg/mL (≈ 138 µM). The result for `Cc1nc2ccc([N+](=O)[O-])cc2c(=O)n1Cc1ccccc1Br` reads 2 µg/mL (≈ 5.34 µM); that for `O=C(Cc1ccccc1)Oc1ccc([N+](=O)[O-])cc1`, above 38.6 µg/mL. The result for `CC1(C)CC2CC(C)(CN2C(=S)Nc2ccccc2F)C1` (stereo not drawn) reads 44 µg/mL (≈ 144 µM).

`CCOC(=O)c1sc(-c2ccc(Cl)cc2)nc1O` had a kinetic solubility of 40.8 µg/mL (≈ 144 µM).

Turning to `COc1ccc(C=C(C#N)C#N)c(CSc2ccccn2)c1`, the kinetic solubility was 2.1 µg/mL (≈ 6.83 µM). In the case of `CCN1C(=O)/C(=C\c2cccc(OC(=O)c3ccco3)c2)SC1=S`, the solubility (kinetic) was below 0.8 µg/mL.

Turning to `Cc1ccc(-c2nc(C#N)c(NCCCn3ccnc3)o2)cc1`, the kinetic solubility was 0.9 µg/mL (≈ 2.93 µM). The result for `CNn1cnc2ccsc2c1=O` reads above 27.2 µg/mL. `O=C1CSC(=S)N1c1ccc(F)c(Cl)c1` came in with a solubility (kinetic) of 1.3 µg/mL (≈ 4.97 µM).

In the case of `Cc1ccc([N+](=O)[O-])cc1S(=O)(=O)Nc1cccc(S(=O)(=O)Nc2ccccc2C(=O)O)c1`, the solubility (kinetic) was above 73.7 µg/mL. The molecule `CC(NC(=O)c1ccco1)C(=O)Nc1nccs1` (stereo not drawn) registered a solubility (kinetic) above 39.8 µg/mL. The same measure for `CCCCN(C(=O)C1CC(=O)N(c2ccc3c(c2)OCCO3)C1)c1c(N)n(CCC)c(=O)[nH]c1=O` (stereo not drawn): above 72.8 µg/mL; for `CC(C)(C)c1ccc(SCCc2cccnc2)cc1`: below 0.6 µg/mL. The same measure for `COc1ccc(N=CC=C2OC(C)(C)C(C)(C)O2)cc1OC.Cl`: 47.1 µg/mL; for `Cc1cc(C)cc(C(=O)OCC(=O)Nc2ncccn2)c1`: 37.4 µg/mL (≈ 131 µM); for `CCCc1nc2cc(Cl)c([N+](=O)[O-])cc2o1`: 5 µg/mL (≈ 20.8 µM).

As to `Cn1cnc([N+](=O)[O-])c1SCC(O)CCl` (stereo not drawn), the solubility (kinetic) worked out at 36.5 µg/mL (≈ 145 µM). The same measure for `CC(C)(CO)NC(=O)c1ccc2c(c1)C(=O)c1ccccc1-2`: 43.7 µg/mL (≈ 148 µM); for `O=C1C(Cl)=C(N2CCCCCC2)C(=O)N1c1ccc(Br)cc1`: 15.1 µg/mL (≈ 39.4 µM).

`O=C(O)CCC(=O)N(Cc1ccccc1)Cc1ccccc1`: the solubility (kinetic) was above 44.6 µg/mL. `O=C(NC1CCCCC1)c1cc(S(=O)(=O)N2CCN(c3ccccc3)CC2)ccc1Cl` yielded a kinetic solubility of 1.5 µg/mL (≈ 3.25 µM). The same measure for `CC1=C(C)CC(C(=O)NCCc2ccc(F)cc2)C(C(=O)O)C1` (stereo not drawn): above 47.9 µg/mL; for `Cc1ccc([N+](=O)[O-])cc1NC(=O)C(C)N1CCCCC1` (stereo not drawn): 40.4 µg/mL (≈ 139 µM); for `CCCCCCC(=O)OCC(=O)c1ccc2c(c1)NC(=O)CO2`: 10.8 µg/mL (≈ 33.8 µM). The same measure for `COc1cc2c(cc1OC)CN(c1ccc(C(F)(F)F)cn1)CC2`: 34.9 µg/mL (≈ 103 µM); for `CN(CCC(=O)Nc1ccc(Cl)cc1)Cc1ccccc1.Cl`: above 50.9 µg/mL; for `O=S(=O)(Nc1ccc(Cl)c(Cl)c1)N1CCOCC1`: above 46.7 µg/mL. The same measure for `Cc1cccn2c(Nc3ccccc3)c(-c3ccccn3)nc12`: 31.2 µg/mL (≈ 104 µM). The molecule `N#CCc1ccc(Oc2ccc([N+](=O)[O-])cn2)cc1` gave a solubility (kinetic) of 35.6 µg/mL (≈ 139 µM). The same measure for `O=c1[nH]cnc2onc(-c3ccc(F)cc3)c12`: above 34.7 µg/mL; for `Cc1ccc(NC(=S)NCCc2ccccc2)nc1`: below 0.2 µg/mL; for `COc1ccc(OC)c(C(=O)c2ccccn2)c1`: above 36.5 µg/mL.

In turn, `Cc1ccc(Nc2ccc([N+](=O)[O-])cn2)cc1Cl` yielded a kinetic solubility below 0.2 µg/mL. For `COc1ccc(NC(=O)CS(=O)(=O)c2ccccc2Cl)cc1`, the kinetic solubility turned out to be 43.8 µg/mL (≈ 129 µM). The same measure for `Cc1ccc2nc(-c3ccccc3)c(CN3CCOCC3)n2c1`: above 46.1 µg/mL; for `O=C(CCS(=O)(=O)Cc1ccccc1F)NCc1ccccc1Cl`: 4.3 µg/mL (≈ 11.6 µM).

Turning to `O=C(NCCNC(=O)c1ccccc1Cl)c1ccco1`, the kinetic solubility was 39.7 µg/mL (≈ 136 µM).

`CC1CC1C(=O)OCC(=O)NC(=O)NC12CC3CC(CC(C3)C1)C2` (stereo not drawn) showed a solubility (kinetic) of 22.5 µg/mL (≈ 67.3 µM). The same measure for `O=S(=O)(Nc1ccc2c(c1)OCO2)c1ccc(F)c(F)c1`: above 47 µg/mL. The same measure for `O=C(NCc1ccco1)c1cccc(C(F)(F)F)c1`: above 40.4 µg/mL; for `CC(Sc1ccccc1F)C(=O)Nc1ccc2c(c1)OCCO2` (stereo not drawn): above 50 µg/mL. The same measure for `O=S(=O)(Nc1ccc2ccccc2n1)c1ccccc1Cl`: 3.3 µg/mL (≈ 10.4 µM). Consider `COc1ccc(-n2cnc3sccc3c2=O)cc1`, for which the kinetic solubility is 35.8 µg/mL (≈ 139 µM). The same measure for `COc1ccccc1NC(=S)NCc1ccccc1`: 14.8 µg/mL (≈ 54.3 µM). The result for `CN(C)C(=S)NC(C)(C)C` reads 2.7 µg/mL (≈ 16.8 µM); that for `O=C(c1ccccc1Cl)N1CCn2c1nc1ccccc12`, 29.5 µg/mL (≈ 99.1 µM); that for `N#C/C(=C\c1ccccc1Br)C(=O)NC1CC1`, above 43.7 µg/mL.

Consider `Cc1cc(=O)oc2cc(OCC(=O)N3CCN(Cc4ccccc4)CC3)ccc12`, for which the solubility (kinetic) amounted to 56.7 µg/mL (≈ 144 µM).

In turn, `CC1CCN(c2ccc([N+](=O)[O-])c(SCCO)c2)CC1` yielded a kinetic solubility of 28.4 µg/mL (≈ 95.8 µM). The same measure for `Cc1ccccc1N=CC1=C(O)c2ccccc2C1=O`: below 0.6 µg/mL; for `CC1CCCC(C)N1C(=O)Cn1cnc2cc([N+](=O)[O-])ccc2c1=O` (stereo not drawn): above 51.7 µg/mL; for `O=C(CN1C(=O)c2ccc([N+](=O)[O-])cc2C1=O)NCc1ccc(C(=O)O)cc1`: above 57.5 µg/mL. The same measure for `O=C(N=C1SC2CS(=O)(=O)CC2N1c1ccccc1)c1ccccc1` (stereo not drawn): 4 µg/mL (≈ 10.7 µM); for `Cc1cc2cc(CNC(=O)C(C)Oc3ccccc3)ccc2n1C` (stereo not drawn): 11.4 µg/mL (≈ 35.4 µM).

As to `COc1ccc(S(=O)(=O)Nc2ccc(C)cn2)cc1`, the kinetic solubility was determined as 25.4 µg/mL (≈ 91.3 µM). The same measure for `O=C(CCCC(=O)c1ccccc1)NCCc1ccccc1`: above 44.3 µg/mL. With `CCCCNc1c(N)n(CC(C)C)c(=O)[nH]c1=O`, the kinetic solubility stood at 35.9 µg/mL (≈ 141 µM). In turn, `Cn1c(SCC(=O)NC2CC2)nnc1-c1ccccn1` registered a kinetic solubility above 43.4 µg/mL. Turning to `Cc1c(C(=O)n2cnc3ccccc32)cccc1[N+](=O)[O-]`, the solubility (kinetic) came to 39.8 µg/mL (≈ 142 µM). The molecule `O=C(Nc1cccc(Cl)c1Cl)C1CCCC1` displayed a solubility (kinetic) of 3.9 µg/mL (≈ 15.1 µM). The same measure for `CC(=O)C1=C(O)C(=O)N(c2ccc(F)cc2)C1c1ccc(C)cc1` (stereo not drawn): above 48.8 µg/mL. The result for `Cc1cc(C)nc(N2CCCC(C(=O)Nc3cccc(Cl)c3)C2)n1` (stereo not drawn) reads below 0.2 µg/mL; that for `COc1cccc(-n2cc(-c3ccc(F)cc3)[nH]c2=S)c1`, 2.4 µg/mL (≈ 7.99 µM); that for `NS(=O)(=O)c1cccc(NC(=O)c2ccno2)c1`, above 40.1 µg/mL. The result for `Cc1ccc(/C=C(\C#N)C(=O)NCc2ccco2)o1` reads 9 µg/mL (≈ 35.1 µM). `NC(=NC(=O)c1ccc(OC(F)(F)F)cc1)c1ccc(C(F)(F)F)cn1` registered a kinetic solubility below 0.3 µg/mL.

The molecule `NC(N)=Nc1nc(-c2ccccc2)c2cc(F)ccc2n1` gave a kinetic solubility above 42.2 µg/mL. The same measure for `COc1ccc(S(=O)(=O)/C(C#N)=C/Nc2cccc(F)c2)cc1`: below 0.4 µg/mL; for `CCOc1ccccc1/C=N/OCC(=O)NCc1ccc(F)cc1`: 32.9 µg/mL (≈ 99.6 µM); for `COc1ccc(Cl)cc1NC(=S)N1CC(C)OC(C)C1` (stereo not drawn): above 47.2 µg/mL. `COc1cccc2c1OCC(C(=O)Nc1nccs1)=C2`: the solubility (kinetic) is 18.2 µg/mL (≈ 63.1 µM). `CC12CC3CC(C)(C1)CC(N)(C3)C2.Cl` had a solubility (kinetic) of 29.4 µg/mL. `C=CCC1(CC=C)CCCN1Cc1nc(COc2ccccc2)no1` yielded a solubility (kinetic) of 8.3 µg/mL (≈ 24.5 µM). The same measure for `NC(=O)COC(=O)c1cccnc1Nc1ccccc1F`: 36.1 µg/mL (≈ 125 µM); for `COC(=O)c1[nH]c2cccc(OC)c2c1NC(=O)CCN1CCSCC1`: 54.6 µg/mL (≈ 145 µM). The result for `CCOc1ccc(NC(=O)COC(=O)Cc2ccsc2)cc1` reads 25.1 µg/mL (≈ 78.6 µM); that for `CC(C)(C)c1ccc(-c2cnco2)cc1`, 0.9 µg/mL (≈ 4.47 µM); that for `CC(OC(=O)CCCC(=O)Nc1ccc(F)cc1)C(=O)c1ccccc1` (stereo not drawn), 44.7 µg/mL (≈ 125 µM). `O=C1N(c2ccccc2)c2ccccc2C1(O)C(F)(F)F` (stereo not drawn) returned a solubility (kinetic) above 44 µg/mL.

On to `CC1(C)CC(NCCC(c2ccccc2)c2ccco2)CCO1` (stereo not drawn), for which the solubility (kinetic) stood at 44.5 µg/mL (≈ 142 µM). The result for `O=C(CNC(=O)Cc1ccccc1)NCC(=O)N1CCCCC1` (PhAc-Gly-Gly-Piperidide) reads above 47.6 µg/mL; that for `O=C(CCc1ccccc1F)N1CCN(c2ccccc2)CC1`, 41.6 µg/mL (≈ 133 µM); that for `COc1ccc(NC(=O)C2CC(c3ccccc3Cl)=NO2)cc1` (stereo not drawn), 37.6 µg/mL (≈ 114 µM). The result for `CC1=C(C(=O)NCc2ccc(Cl)cc2)C2(CCC(C)CC2)OC1=O` (stereo not drawn) reads 4.3 µg/mL (≈ 12.4 µM); that for `O=C(O)c1cc([N+](=O)[O-])c(Sc2nc3ccccc3[nH]2)c([N+](=O)[O-])c1`, above 54 µg/mL; that for `CCOC(=O)c1ccc(N=c2ssnc2Cl)cc1`, 4.8 µg/mL (≈ 16 µM).

`Cc1ccc2[nH]c3ccccc3c(=O)c2c1` gave a solubility (kinetic) of 5.8 µg/mL (≈ 27.7 µM).

For `O=c1nc(N2CCCC2)nc(N2CCCC2)[nH]1`, the solubility (kinetic) was 34.3 µg/mL (≈ 146 µM). The same measure for `Cc1ccc(CNC(=O)c2c(-c3ccccc3)noc2C)cc1`: 2.1 µg/mL (≈ 6.85 µM); for `COC(=O)CSc1ncc(S(=O)(=O)c2ccccc2)c(=O)[nH]1`: above 51.1 µg/mL; for `CN1CCN(C(=O)OC2c3nccnc3C(=O)N2c2ccc(Cl)cn2)CC1` (stereo not drawn): above 58.3 µg/mL.

Regarding `Cc1ccc2c(=O)cc(C(=O)NC3CCS(=O)(=O)C3)oc2c1` (stereo not drawn), the kinetic solubility is above 48.2 µg/mL. The result for `Cc1cc(/C=C2\SC(=O)N(C)C2=O)c(C)n1-c1ccc(O)cc1` reads 5.6 µg/mL (≈ 17.1 µM); that for `COc1ccc(/C=C/C(=O)OCC(=O)NCCc2ccccc2)c(OC)c1`, 8.5 µg/mL (≈ 23 µM).

The values are drawn from PubChem BioAssay AID1996.
